Data published in patent US20240208908A1, “CRYSTAL FORM OF PYRIDINE NITROGEN OXIDE COMPOUND AND USE THEREOF” (SHANGHAI JEMINCARE PHARMACEUTICAL CO., LTD, priority 2021, published 2024).
One block for each compound: values may come before it.

Key:
NaV1.8 = target: T1, NaV1.8 (Homo sapiens, UniProt Q9Y5Y9); test: Whole-cell patch-clamp, blocking activity on NaV1.8 channel current (CHO cell line stably expressing NaV1.8); format: cell-based; conditions: statement in words
T1 construct: expressed in transfected cells
T1 sequence (Q9Y5Y9 whole entry): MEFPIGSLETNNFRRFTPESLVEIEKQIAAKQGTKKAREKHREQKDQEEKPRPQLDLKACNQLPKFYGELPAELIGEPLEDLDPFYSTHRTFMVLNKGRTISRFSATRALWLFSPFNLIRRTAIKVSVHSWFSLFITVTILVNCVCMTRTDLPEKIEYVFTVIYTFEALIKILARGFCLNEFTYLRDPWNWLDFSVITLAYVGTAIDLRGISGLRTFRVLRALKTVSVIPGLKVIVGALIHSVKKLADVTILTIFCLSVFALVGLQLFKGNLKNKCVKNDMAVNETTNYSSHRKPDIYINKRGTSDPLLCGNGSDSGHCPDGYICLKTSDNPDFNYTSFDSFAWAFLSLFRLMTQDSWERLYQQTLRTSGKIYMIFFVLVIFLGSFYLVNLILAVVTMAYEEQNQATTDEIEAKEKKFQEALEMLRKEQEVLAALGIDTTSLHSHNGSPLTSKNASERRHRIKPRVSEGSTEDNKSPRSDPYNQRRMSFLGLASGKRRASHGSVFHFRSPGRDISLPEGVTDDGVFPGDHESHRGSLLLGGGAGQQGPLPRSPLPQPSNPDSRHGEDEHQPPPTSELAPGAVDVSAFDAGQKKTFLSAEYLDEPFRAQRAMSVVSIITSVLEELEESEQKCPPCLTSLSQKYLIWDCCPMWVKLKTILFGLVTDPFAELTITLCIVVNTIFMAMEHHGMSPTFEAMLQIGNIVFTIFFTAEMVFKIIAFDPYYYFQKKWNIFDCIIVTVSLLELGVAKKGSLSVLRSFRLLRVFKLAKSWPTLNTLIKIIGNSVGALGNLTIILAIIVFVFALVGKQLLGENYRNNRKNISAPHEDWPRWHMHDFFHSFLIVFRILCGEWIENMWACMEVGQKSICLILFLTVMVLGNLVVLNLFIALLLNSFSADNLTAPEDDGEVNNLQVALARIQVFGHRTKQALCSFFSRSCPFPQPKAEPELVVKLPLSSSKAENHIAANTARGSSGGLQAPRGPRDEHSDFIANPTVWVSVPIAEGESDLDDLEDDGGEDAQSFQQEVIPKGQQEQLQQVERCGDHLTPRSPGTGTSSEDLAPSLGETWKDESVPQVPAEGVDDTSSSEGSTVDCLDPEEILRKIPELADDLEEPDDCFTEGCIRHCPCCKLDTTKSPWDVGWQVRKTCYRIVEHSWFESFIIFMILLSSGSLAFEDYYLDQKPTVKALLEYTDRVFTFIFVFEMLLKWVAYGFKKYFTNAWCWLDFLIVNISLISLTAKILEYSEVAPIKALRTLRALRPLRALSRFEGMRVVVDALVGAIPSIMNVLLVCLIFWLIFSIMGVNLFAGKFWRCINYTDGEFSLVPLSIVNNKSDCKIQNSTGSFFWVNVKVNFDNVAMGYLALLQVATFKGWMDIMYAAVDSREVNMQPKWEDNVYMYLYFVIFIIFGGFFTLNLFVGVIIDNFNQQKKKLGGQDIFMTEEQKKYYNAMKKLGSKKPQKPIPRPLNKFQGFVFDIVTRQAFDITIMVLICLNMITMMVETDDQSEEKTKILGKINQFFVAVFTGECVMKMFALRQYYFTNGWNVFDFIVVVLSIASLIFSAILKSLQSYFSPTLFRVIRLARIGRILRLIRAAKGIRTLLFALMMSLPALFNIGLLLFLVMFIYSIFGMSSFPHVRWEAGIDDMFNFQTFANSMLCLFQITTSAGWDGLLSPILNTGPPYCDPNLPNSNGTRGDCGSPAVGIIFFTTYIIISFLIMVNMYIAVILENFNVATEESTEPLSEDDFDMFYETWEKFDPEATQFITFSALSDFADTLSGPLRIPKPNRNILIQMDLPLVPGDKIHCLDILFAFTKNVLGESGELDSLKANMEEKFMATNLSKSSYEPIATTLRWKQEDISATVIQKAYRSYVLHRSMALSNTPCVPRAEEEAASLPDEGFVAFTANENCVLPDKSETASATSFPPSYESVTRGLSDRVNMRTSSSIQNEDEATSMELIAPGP
Experimental: • 1. Test method: the patch-clamp technique was used to detect the effects of compound on the voltage-gated sodium channels (NaV) 1.1 to 1.8 subtype currents
• 1) the specific information of CHO cell line stably expressing NaV1.8 channel was as follows: SCN10A: NM_006514 • 2) Cells were cultured in HAM'S/F-12 medium containing 10% fetal bovine serum, 10 μg/mL Blasticidin, 200 μg/mL Hygromycin B and 100 μg/mL Zeocin at 37° C. and 5% carbon dioxide concentration. • 3) Cell passage: the old medium was removed and washed once with PBS, and then 1 mL of 0.25%-Trypsin-EDTA solution was added and incubated at 37° C. for 1.5 minutes. When the cells were detached from the bottom of the plate, 5 mL of 37° C. prewarmed complete medium was added. […]
Double-pulse mode was performed by two 0 mV depolarization test pulses (TP1 and TP2) for 50 ms. […] Data acquisition was repeated at 20 s intervals and the current peaks at two test pulses were measured.
While the NaV channel current recorded in the whole cell was stable, the drug was administered, and each drug concentration was applied for 5 minutes (or the current is stabilized) and then the next concentration was detected; each test compound was detected at multiple concentrations. […] The current detected by each cell in the external fluid without the compounds was used as its own control group. Multiple cells were detected independently and repeatedly. […]

[1] = Pharmacokinetics in rats, single intravenous injection or intragastric administration; format: in vivo, male Sprague Dawley rats
Experimental: In this experimental embodiment, in vivo pharmacokinetic evaluation was evaluated in rats by single intravenous injection or intragastric oral administration.
Experimental methods and conditions: male Sprague Dawley rats; all animals were fasted overnight, and were given a single dose of the compound to be tested at 1 mg/kg (intravenous injection, solvent 5% DMSO/10% Solutol/85% Saline) and 10 mg/kg (intragastric administration) respectively, at 5 min, 15 min, 30 min, 1 hr, 2 hr, 4 hr, 6 hr, 8 hr and 24 h after drug administration, blood was collected from the submandibular vein, about 0.20 mL per sample was collected, heparin sodium was used for anticoagulation, and then it was placed on ice after collection and centrifuged within 1 hour to separate the plasma for testing. The concentration of the drug in the plasma was measured by liquid tandem mass spectrometry (LC/MS/MS), and the measured concentration was used to calculate pharmacokinetic parameters.

[2] = Suspension competition test of crystal forms; format: physicochemical
Experimental: In order to further study the transformation relationship between the free anhydrous crystal form and the hydrate crystal form, a suspension competition test was carried out on the anhydrous crystal form B/G and the hydrate crystal form A. Firstly, the suspension competition test between […] B and G was set up at 5° C., room temperature and 50° C. in ACN and room temperature in EtOAc. The specific steps are as follows: 1) saturated solution of the free state was prepared in different solvent systems at corresponding temperatures; 2) the corresponding free crystal form sample was added into 0.5 mL of the saturated solution to form a suspension; 3) the mixture was magnetically stirred under corresponding temperature conditions; 4) after stirring for 1 to 5 days, the solid was separated for XRPD testing.
Therefore, a suspension competition test of stable anhydrous crystal form B at room temperature and hydrate form A with different water activities (aw=0/0.2/0.4/0.6/0.8/1.0) of ACN/H2O at room temperature was set up. […] Reference source not found.

[3] = Solid-state stability experiment (XRPD, HPLC); format: physicochemical; conditions: for Crystal form variation: XRPD
Experimental: The stability test in the high-performance liquid chromatography (IPLC) test used in the present disclosure is tested by an Agilent 1260 high-performance liquid chromatograph, and the analytical conditions are shown in Table 11.
In order to evaluate the solid stability of the free anhydrous crystal form B, an appropriate amount of the sample was respectively weighed, placed at 60° C. for 24 hours, and exposed at 25° C./60% RH and 40° C./75[…] for one week. The crystal changes of the solid samples placed under different conditions were tested by XRPD, and the chemical stability was evaluated by HPLC.

[4] = 25° C./60% RH/exposure, one week
[5] = 40° C./75% RH/exposure, one week
[6] = statement in words, all test conditions

blocking effect on NaV1.8 channel activity (NaV1.8): obvious blocking effect
F ([1]; rat, intragastric 10 mg/kg): 72.59%
pharmacokinetic absorption in rats ([1]; statement in words): good pharmacokinetic absorption
Structure (SMILES): O=C(Nc1ccc[n+]([O-])c1)c1cc(Cl)c(Cl)cc1Oc1ccc(OC(F)(F)F)cc1 [Compound of formula (I)]

crystal form obtained in suspension competition ([2]; ACN/H2O, room temperature, aw=0 to 0.4): anhydrous crystal form B was obtained
crystal form obtained in suspension competition ([2]; ACN/H2O, room temperature, aw=0.6 to 1 (pure water)): hydrate crystal form A was obtained
Competition test result (crystal form obtained) ([2]; test 22-A1, ACN (aw to 0), room temperature): Free crystal form B
Competition test result (crystal form obtained) ([2]; test 22-A2, ACN/H2O (981:19, aw to 0.2), room temperature): Free crystal form B
Competition test result (crystal form obtained) ([2]; test 22-A3, ACN/H2O (957:43, aw to 0.4), room temperature): Free crystal form B
Competition test result (crystal form obtained) ([2]; test 22-A4, ACN/H2O (924:76, aw to 0.6), room temperature): Free crystal form B
Competition test result (crystal form obtained) ([2]; test 22-A5, ACN/H2O (87:13, aw to 0.8), room temperature): Free crystal form B
Competition test result (crystal form obtained) ([2]; test 22-A6, H2O (aw to 1.0), room temperature): Free crystal form B
Structure (SMILES): O=C(Nc1ccc[n+]([O-])c1)c1cc(Cl)c(Cl)cc1Oc1ccc(OC(F)(F)F)cc1 [Crystal form A/B]

Competition test result (crystal form obtained) ([2]; test 22-B1, ACN (aw to 0), 5° C.): Free crystal form B
Competition test result (crystal form obtained) ([2]; test 22-B2, ACN (aw to 0), room temperature): Free crystal form B
Competition test result (crystal form obtained) ([2]; test 22-B3, ACN (aw to 0), 50° C.): Free crystal form B
Competition test result (crystal form obtained) ([2]; test 22-B4, EtOAc (aw to 0), room temperature): Free crystal form B
Structure (SMILES): O=C(Nc1ccc[n+]([O-])c1)c1cc(Cl)c(Cl)cc1Oc1ccc(OC(F)(F)F)cc1 [Crystal form B/G]
crystal form obtained in suspension competition ([2]; ACN at 5° C., room temperature, 50° C. and EtOAc at room temperature): only the free crystal form B was obtained

Purity [3, 4]: 99.90 area %
Relative to initial purity [3, 4]: 99.99%
Crystal form variation [3, 4]: Constant
Purity [3, 5]: 99.90 area %
Relative to initial purity [3, 5]: 99.99%
Crystal form variation [3, 5]: Constant
Purity ([3]; 60° C./closed, 24 hours): 99.91 area %
Relative to initial purity ([3]; 60° C./closed, 24 hours): 100.00%
Crystal form variation ([3]; 60° C./closed, 24 hours): Constant
Purity ([3]; Start): 99.91 area %
HPLC purity under the test conditions [3, 6]: not decreased obviously
crystal form change under the test conditions [3, 6]: not changed
stability and druggability compared with hydrate crystal form ([2]; conclusion in words): better stability
Structure (SMILES): O=C(Nc1ccc[n+]([O-])c1)c1cc(Cl)c(Cl)cc1Oc1ccc(OC(F)(F)F)cc1 [Free crystal form B]
